This note sets out measurements from ChEMBL document CHEMBL5696439 (Cancer Res, 2010).

Structures are written as SMILES. Active and inactive are the calls of the source. The rule behind the calls is not given here.

In experiment [1] the target is AMP-activated protein kinase (AMPK) alpha-1/beta-1/gamma-1 (Homo sapiens) (UniProt P54619+Q9Y478+Q13131). Description: Inhibition of recombinant human full-length GST/His-tagged AMPKalpha1/beta1/gamma1 expressed in insect cells at 2 uM using Ser/Thr 23 as substrate measured after 1 hr by Z'-LYTE assay relative to control. The conditions noted are these: Insect cell.

For experiment [2], the target named is Dual specificity tyrosine-phosphorylation-regulated kinase 1B (Homo sapiens) (UniProt Q9Y463). Description: Inhibition of recombinant human full-length GST-tagged DYRK1B expressed in insect cells at 2 uM using Ser/Thr 18 as substrate measured after 1 hr by Z'-LYTE assay relative to control. The conditions noted are these: Insect cell.
Experiment [3] addresses Ephrin type-A receptor 5 (Homo sapiens) (UniProt P54756). Description: Inhibition of recombinant human GST-tagged EPHA5 (595-1037 residues) expressed in insect cells at 2 uM using Tyr 01 as substrate measured after 1 hr by Z'-LYTE assay relative to control. The note with it: Insect cell.
The target in experiment [4] is Homeodomain-interacting protein kinase 4 (Homo sapiens) (UniProt Q8NE63). Description: Inhibition of recombinant human full-length GST-tagged HIPK4 expressed in insect cells at 2 uM using Ser/Thr 18 as substrate measured after 1 hr by Z'-LYTE assay relative to control. The conditions noted are these: Insect cell.
The target in experiment [5] is Tyrosine-protein kinase JAK2 (Homo sapiens) (UniProt O60674). As to the kind of experiment: Inhibition of recombinant human GST-tagged JAK2 (809-1153 +9 residues) expressed in insect cells at 2 uM using Tyr 06 as substrate measured after 1 hr by Z'-LYTE assay relative to control. The note with it: Insect cell.
Experiment [6] deals with Tyrosine-protein kinase JAK2 (Homo sapiens), O60674 [V617F]. Description: Inhibition of recombinant human GST-tagged JAK2 JH1 JH2 domains V617F mutant (532-1132 residues) expressed in insect cells at 2 uM using Tyr 06 as substrate measured after 1 hr by Z'-LYTE assay relative to control. The conditions noted are these: Insect cell.
The target of experiment [7] is Mitogen-activated protein kinase kinase kinase kinase 4 (Homo sapiens) (UniProt O95819). Description: Inhibition of recombinant human GST-tagged MAP4K4 (1-328 residues) expressed in insect cells at 2 uM using Ser/Thr 07 as substrate measured after 1 hr by Z'-LYTE assay relative to control. The note with it: Insect cell.
For experiment [8], the target named is Mitogen-activated protein kinase 10 (Homo sapiens) (UniProt P53779). As to the kind of experiment: Inhibition of recombinant human full length GST-tagged MAPK10 expressed in insect cells at 2 uM using Ser/Thr 04 as substrate measured after 1 hr by Z'-LYTE assay relative to control. The conditions noted are these: Insect cell.
The target of experiment [9] is Mitogen-activated protein kinase 13 (Homo sapiens) (UniProt O15264). As to the kind of experiment: Inhibition of recombinant human full length His-tagged MAPK13 expressed in baculovirus expression system at 2 uM using Ser/Thr 03 as substrate measured after 1 hr by Z'-LYTE assay relative to control.
In experiment [10] the target is Misshapen-like kinase 1 (Homo sapiens) (UniProt Q8N4C8). As to the kind of experiment: Inhibition of recombinant human GST-tagged MINK1 (1-320 residues) expressed in insect cells at 2 uM using Ser/Thr 07 as substrate measured after 1 hr by Z'-LYTE assay relative to control. The conditions noted are these: Insect cell.
For experiment [11], the target named is Serine/threonine-protein kinase PAK 4 (Homo sapiens) (UniProt O96013). Description: Inhibition of recombinant human GST-tagged PAK4 (295-591 residues) expressed in insect cells at 2 uM using Ser/Thr 20 as substrate measured after 1 hr by Z'-LYTE assay relative to control. The conditions noted are these: Insect cell.
For experiment [12], the target named is Platelet-derived growth factor receptor alpha (Homo sapiens) (UniProt P16234). As to the kind of experiment: Inhibition of recombinant human GST-tagged PDGFRA (550-1089 residues) expressed in baculovirus expression system at 2 uM using Tyr 04 as substrate measured after 1 hr by Z'-LYTE assay relative to control.
Experiment [13] addresses cAMP-dependent protein kinase catalytic subunit PRKX (Homo sapiens) (UniProt P51817). As to the kind of experiment: Inhibition of recombinant human full length GST-tagged PRKX expressed in insect cells at 2 uM using Ser/Thr 01 as substrate measured after 1 hr by Z'-LYTE assay relative to control. The note with it: Insect cell.
The target in experiment [14] is Proto-oncogene tyrosine-protein kinase Src (Homo sapiens) (UniProt P12931). As to the kind of experiment: Inhibition of recombinant human full length His-tagged SRC expressed in insect cells at 2 uM using Tyr 02 as substrate measured after 1 hr by Z'-LYTE assay relative to control. The note with it: Insect cell.
The target is the same in experiment [15]. Description: Inhibition of recombinant human full length SRC N1 expressed in baculovirus expression system at 2 uM using Tyr 02 as substrate measured after 1 hr by Z'-LYTE assay relative to control.
For experiment [16], the target named is Angiopoietin-1 receptor (Homo sapiens) (UniProt Q02763). As to the kind of experiment: Inhibition of recombinant human GST-tagged TEK (817-1101 residues) expressed in insect cells at 2 uM using […] as substrate measured after 1 hr by Z'-LYTE assay relative to control. The note with it: Insect cell.
Experiment [17] has as its target Tyrosine-protein kinase ZAP-70 (Homo sapiens) (UniProt P43403). Description: Inhibition of recombinant human full length His-tagged ZAP70 expressed in baculovirus expression system at 2 uM using […] as substrate measured after 1 hr by Z'-LYTE assay relative to control.
Experiment [18] relates to MDA-MB-231. As to the kind of experiment: Antiproliferative activity against human MDA-MB-231 cells assessed as cell growth inhibition incubated for 24 hrs by MTS assay. The note with it: MDA-MB-231, 24 h. Format: functional, cell-based. A general note: Formazan colour is commonly taken as a measure of viable cells.
The test system of experiment [19] is U-87 MG. As to the kind of experiment: Antitumor activity against human U-87MG cells assessed as reduction in HIF-1alpha level at 0.025 to 2 micromol/L incubated for 6 hrs by immunoblot analysis. The experiment is classed as functional, cell-based. The conditions noted are these: U-87MG ATCC, dose 0.025-2 µmol/L.
The test system of experiment [20] is HCT-116. As to the kind of experiment: Antitumor activity against human HCT-116 cells xenografted in female nude mouse model assessed as reduction in P-AKT at T308 level at 50 mg/kg, iv administered once a week and measured at least 8 hrs by immunoblot analysis. The experiment is classed as functional, organism-based. In general terms: Xenograft models place foreign cells or tissue in a host animal.

The test system of experiment [21] is U-87 MG. Description: Antitumor activity against PTEN-null human U-87MG cells xenografted in female nude mouse model assessed as tumor growth delay at 25 to 50 mg/kg, po qd administered as 5 days on/2 days off regimen for 4 cycles. The experiment is classed as functional, organism-based. The note with it: U-87MG ATCC, dose 25-50 mg/kg, time 28.0 day.
For experiment [22], the system named is A549. Description: Antitumor activity against human A549 cells xenografted in female nude mouse model assessed as suppression in tumor growth at 25 mg/kg, po qd administered as 5 days on/2 days off regimen for 4 cycles relative to control. The note with it: time 28 day. Format: functional.
Experiment [23] deals with mTORC2 (Homo sapiens) (UniProt P42345+Q6R327+Q9BVC4+Q9BPZ7). The note with it: PC3MM2, dose 0.1-1 µM, time 6.0 hrs.
Experiment [24] addresses 3-phosphoinositide-dependent protein kinase 1 (Homo sapiens) (UniProt O15530). As to the kind of experiment: Inhibition of recombinant human full length His-tagged PDK1 expressed in baculovirus expression system at 2 uM using Ser/Thr 06 as substrate measured after 1 hr by Z'-LYTE assay relative to control.

Usually inhibition stands for the drop in the measured response relative to a control, in per cent. A word on the IC50: it is the concentration at which inhibition is half-maximal.

Proto-oncogene tyrosine-protein kinase Src (Homo sapiens), sequence (P12931 2-536 limits assumed): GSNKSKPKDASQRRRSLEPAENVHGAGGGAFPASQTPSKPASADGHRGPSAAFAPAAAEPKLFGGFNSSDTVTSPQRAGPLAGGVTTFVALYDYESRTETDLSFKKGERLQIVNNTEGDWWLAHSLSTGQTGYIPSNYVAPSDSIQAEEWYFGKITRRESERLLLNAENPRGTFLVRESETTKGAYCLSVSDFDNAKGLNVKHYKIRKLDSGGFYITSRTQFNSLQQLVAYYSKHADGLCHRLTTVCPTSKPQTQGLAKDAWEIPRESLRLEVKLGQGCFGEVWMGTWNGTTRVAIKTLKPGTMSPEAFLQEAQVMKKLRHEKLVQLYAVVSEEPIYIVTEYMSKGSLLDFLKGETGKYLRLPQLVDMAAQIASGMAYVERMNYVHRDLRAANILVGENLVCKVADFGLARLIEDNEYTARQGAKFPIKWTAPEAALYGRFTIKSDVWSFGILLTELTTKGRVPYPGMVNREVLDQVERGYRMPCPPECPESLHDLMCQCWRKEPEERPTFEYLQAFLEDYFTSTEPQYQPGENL
Platelet-derived growth factor receptor alpha (Homo sapiens), sequence (P16234 whole entry, the tested form may be a part): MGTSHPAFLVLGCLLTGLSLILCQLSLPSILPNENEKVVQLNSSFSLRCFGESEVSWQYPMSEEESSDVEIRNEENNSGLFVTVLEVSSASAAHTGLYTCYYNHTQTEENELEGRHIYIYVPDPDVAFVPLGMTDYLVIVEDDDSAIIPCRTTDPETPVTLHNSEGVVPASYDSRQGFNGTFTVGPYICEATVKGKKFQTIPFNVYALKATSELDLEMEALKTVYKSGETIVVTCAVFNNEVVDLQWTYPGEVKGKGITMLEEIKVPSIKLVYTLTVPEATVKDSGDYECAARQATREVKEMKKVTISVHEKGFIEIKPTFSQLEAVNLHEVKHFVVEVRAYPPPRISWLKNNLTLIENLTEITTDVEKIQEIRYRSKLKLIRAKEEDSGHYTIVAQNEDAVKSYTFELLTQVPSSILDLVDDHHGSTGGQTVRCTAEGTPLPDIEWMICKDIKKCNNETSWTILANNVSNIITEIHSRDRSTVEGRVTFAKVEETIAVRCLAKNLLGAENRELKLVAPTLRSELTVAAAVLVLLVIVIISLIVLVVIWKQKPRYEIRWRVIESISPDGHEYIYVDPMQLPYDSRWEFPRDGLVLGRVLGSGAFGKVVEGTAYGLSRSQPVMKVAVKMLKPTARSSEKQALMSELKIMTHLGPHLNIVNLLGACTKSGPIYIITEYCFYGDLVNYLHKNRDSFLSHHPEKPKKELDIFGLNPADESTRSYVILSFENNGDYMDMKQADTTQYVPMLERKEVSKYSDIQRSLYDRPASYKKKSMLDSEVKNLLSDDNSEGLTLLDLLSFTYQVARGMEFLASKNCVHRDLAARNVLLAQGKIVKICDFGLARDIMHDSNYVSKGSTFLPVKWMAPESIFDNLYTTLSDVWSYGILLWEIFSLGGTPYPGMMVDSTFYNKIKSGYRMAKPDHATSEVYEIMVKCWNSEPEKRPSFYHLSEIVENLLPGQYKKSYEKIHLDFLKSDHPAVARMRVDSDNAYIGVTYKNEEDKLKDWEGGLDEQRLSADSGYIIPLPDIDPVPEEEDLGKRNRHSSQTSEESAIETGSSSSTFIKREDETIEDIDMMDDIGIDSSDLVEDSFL
AMP-activated protein kinase (AMPK) alpha-1/beta-1/gamma-1 (Homo sapiens), sequence (P54619 whole entry): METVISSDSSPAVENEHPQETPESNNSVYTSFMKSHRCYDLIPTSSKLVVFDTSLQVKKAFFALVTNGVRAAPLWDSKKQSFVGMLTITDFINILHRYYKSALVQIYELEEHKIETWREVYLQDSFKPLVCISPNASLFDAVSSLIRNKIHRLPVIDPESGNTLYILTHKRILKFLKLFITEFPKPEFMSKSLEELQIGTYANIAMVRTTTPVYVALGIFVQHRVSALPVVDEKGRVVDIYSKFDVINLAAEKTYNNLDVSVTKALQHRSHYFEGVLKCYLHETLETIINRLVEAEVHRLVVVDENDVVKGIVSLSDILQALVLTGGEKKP
AMP-activated protein kinase (AMPK) alpha-1/beta-1/gamma-1 (Homo sapiens), sequence (Q13131 whole entry partner): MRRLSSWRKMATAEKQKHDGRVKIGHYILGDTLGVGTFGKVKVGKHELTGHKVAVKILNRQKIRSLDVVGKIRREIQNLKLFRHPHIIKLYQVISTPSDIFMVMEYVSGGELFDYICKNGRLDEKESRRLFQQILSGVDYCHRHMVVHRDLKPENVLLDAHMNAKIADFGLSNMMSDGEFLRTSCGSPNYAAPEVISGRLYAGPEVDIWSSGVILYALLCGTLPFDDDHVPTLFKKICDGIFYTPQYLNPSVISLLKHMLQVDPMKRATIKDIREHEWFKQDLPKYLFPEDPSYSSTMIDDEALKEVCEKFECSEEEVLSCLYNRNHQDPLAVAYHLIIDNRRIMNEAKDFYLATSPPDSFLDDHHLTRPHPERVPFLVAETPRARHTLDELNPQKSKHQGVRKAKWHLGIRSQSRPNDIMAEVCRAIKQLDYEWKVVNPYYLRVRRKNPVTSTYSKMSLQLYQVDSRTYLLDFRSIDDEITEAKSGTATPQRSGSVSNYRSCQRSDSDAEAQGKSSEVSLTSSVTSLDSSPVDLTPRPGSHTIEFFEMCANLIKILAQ
AMP-activated protein kinase (AMPK) alpha-1/beta-1/gamma-1 (Homo sapiens), sequence (Q9Y478 2-270 partner limits assumed): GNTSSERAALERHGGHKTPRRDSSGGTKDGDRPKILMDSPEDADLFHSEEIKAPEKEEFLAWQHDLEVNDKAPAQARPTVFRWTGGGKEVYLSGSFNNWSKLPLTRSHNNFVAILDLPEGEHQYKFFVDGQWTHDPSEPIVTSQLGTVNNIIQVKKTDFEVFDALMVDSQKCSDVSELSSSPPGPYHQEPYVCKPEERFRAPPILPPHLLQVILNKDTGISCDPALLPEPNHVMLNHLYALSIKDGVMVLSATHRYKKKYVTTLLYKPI
Tyrosine-protein kinase JAK2 (Homo sapiens), O60674 [V617F], sequence (O60674 whole entry V617F, the tested form may be a part): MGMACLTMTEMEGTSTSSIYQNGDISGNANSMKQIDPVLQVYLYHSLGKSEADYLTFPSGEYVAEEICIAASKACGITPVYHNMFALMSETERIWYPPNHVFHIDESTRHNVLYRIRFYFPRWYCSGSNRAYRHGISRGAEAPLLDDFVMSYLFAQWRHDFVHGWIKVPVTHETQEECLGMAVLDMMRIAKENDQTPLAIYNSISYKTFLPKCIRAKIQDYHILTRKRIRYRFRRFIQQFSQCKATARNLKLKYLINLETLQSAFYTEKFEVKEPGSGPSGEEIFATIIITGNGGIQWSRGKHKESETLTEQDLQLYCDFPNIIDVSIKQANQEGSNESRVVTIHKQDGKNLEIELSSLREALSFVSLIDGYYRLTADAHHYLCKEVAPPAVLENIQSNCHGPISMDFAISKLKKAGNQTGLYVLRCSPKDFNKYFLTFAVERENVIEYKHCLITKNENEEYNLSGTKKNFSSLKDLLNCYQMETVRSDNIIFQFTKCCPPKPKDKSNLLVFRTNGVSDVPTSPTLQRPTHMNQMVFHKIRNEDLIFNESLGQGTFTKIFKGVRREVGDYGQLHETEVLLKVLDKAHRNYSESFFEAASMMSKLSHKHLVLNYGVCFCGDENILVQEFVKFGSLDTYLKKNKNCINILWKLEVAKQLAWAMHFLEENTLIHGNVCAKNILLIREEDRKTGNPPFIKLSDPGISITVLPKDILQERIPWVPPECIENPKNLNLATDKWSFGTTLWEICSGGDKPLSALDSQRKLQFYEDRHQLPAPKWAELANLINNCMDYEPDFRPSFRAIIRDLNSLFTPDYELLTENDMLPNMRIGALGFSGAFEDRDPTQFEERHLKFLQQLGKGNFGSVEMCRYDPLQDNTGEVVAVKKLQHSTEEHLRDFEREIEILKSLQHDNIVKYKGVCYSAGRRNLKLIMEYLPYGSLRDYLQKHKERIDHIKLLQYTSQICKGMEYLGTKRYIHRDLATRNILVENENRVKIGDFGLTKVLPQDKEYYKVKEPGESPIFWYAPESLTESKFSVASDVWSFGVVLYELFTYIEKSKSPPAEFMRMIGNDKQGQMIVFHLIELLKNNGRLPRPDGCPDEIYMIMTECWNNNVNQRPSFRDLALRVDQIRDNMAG
Dual specificity tyrosine-phosphorylation-regulated kinase 1B (Homo sapiens), sequence (Q9Y463 whole entry, looked up, the tested form may be a part): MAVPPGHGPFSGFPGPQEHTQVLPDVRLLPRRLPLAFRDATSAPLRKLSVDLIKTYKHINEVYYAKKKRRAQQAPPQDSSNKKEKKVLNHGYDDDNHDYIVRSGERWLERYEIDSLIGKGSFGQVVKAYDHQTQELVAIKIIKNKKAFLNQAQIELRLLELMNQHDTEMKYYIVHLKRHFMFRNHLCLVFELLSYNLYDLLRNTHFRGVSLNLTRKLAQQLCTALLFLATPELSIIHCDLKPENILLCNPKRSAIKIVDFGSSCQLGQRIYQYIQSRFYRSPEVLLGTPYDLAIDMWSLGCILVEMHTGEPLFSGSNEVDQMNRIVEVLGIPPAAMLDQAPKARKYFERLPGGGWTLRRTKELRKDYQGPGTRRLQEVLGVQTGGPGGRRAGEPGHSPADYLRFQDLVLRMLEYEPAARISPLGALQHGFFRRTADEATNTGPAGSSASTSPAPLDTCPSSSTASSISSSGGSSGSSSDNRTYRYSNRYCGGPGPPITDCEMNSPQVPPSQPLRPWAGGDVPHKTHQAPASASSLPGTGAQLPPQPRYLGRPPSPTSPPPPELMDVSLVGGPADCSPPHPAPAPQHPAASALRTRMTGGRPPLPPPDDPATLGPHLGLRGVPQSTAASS
Mitogen-activated protein kinase 10 (Homo sapiens), sequence (P53779 whole entry): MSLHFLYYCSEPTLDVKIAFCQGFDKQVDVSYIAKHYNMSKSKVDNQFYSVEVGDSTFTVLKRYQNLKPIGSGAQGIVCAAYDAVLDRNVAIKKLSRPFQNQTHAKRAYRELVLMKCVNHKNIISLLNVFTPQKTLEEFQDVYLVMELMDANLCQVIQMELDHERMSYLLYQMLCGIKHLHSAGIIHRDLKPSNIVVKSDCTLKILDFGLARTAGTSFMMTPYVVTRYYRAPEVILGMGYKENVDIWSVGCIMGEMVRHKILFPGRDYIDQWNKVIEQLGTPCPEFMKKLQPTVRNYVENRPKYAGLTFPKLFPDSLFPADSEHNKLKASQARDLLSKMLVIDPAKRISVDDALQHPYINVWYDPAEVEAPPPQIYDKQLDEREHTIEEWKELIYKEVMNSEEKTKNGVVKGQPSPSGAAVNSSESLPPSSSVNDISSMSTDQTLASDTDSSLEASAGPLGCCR

Turning to `CNC(=O)Nc1ccc(-c2nc(N3CC4CCC(C3)O4)c3cnn(C4CCC5(CC4)OCCO5)c3n2)cc1`, the inhibition in experiment [1] is 5%; in [2], 2%; in [3], 2%; in experiment [4] it was 7%; in [5], -3%; in experiment [6], 4%. The inhibition in experiment [7] worked out at 10%; in experiment [8], 14%; in experiment [9], 4%; in [10], 14%; in experiment [11], 13%; in experiment [12], 0%. Further, the inhibition was found to be 5% in experiment [13]; 3% in experiment [14]; 7% in experiment [15]; 10% in experiment [16]; 7% in experiment [17]; 3% in experiment [24]. Moreover, the half-inhibitory concentration (IC50) in [18] came to 60 nM. The result in [19] and in [21] was Active. For the same compound, in experiment [20], the result was inactive. Besides, in [22], the Activity stood at 100%. In addition, the inhibition entry in [23] is “inactive”.
